According to patent publication US20140142168A1, “METHODS AND PHARMACEUTICAL COMPOSITIONS FOR THE TREATMENT OF HORMONE-REFRACTORY PROSTATE CANCERS” (CENTRE JEAN PERRIN, priority 2011, published 2014):
Like-named read-outs stand apart in the source and are kept apart here.

Experiments:
patients with HRPC = conditions: docetaxel-treated patients, reference randomized study; cited from earlier work
[1] = Blood levels after administration; assay type: in vivo; conditions: human
Procedure: It was deduced from the investigator data that 1 h after administration of 75 mg/m2 of DTX, blood levels of DTX can reach 3.75 μM.

PC3 cells = experiment: PC3 survival at end of treatment; assay type: cell-based, human; conditions: 2 h 3.75 μM DTX then 70 h drug-free medium, with or without 2 days of repeated 0.25 μM curcumin pretreatment
Procedure: The PC3 line is a human p-53 defective HRPC line displaying high SphK1 activity. To mimic the effect of treatment, 10,000 PC3 cells were seeded in each well of 24-well plates and maintained in DMEM containing 10% FBS (complete medium) overnight. […] Indeed, in these experiences PC3 cells were treated the first day for 2 h at 7 h AM and maintained in DFM until 12 h AM (5h). […] As previously, the cells were maintained in DFM for 70 h in DFM after DTX treatment.
PC3 survival was determined at the end of treatment 1 and 3. Telomerase activity was determined in survived cells by Trap assay at the end of treatment 1, 2 and 3.

| concentration at 1 h ([1]; blood, intravenous, 1 h after administration of 75 mg/m2, deduced from the investigator data, read-out: blood levels of DTX) | concentration at 1 h ([1]; in vivo) | Structure (SMILES) | PSA response (patients with HRPC) | objective tumor response (patients with HRPC) | number of survived cells (PC3 cells) |
| --- | --- | --- | --- | --- | --- |
| 3750 nM | – | CC(=O)O[C@@]12CO[C@@H]1C[C@H](O)[C@@]1(C)C(=O)[C@H](O)C3=C(C)[C@@H](OC(=O)[C@H](O)[C@@H](NC(=O)OC(C)(C)C)c4ccccc4)C[C@@](O)([C@@H](OC(=O)c4ccccc4)[C@H]21)C3(C)C [Docetaxel, (2R,3S)-N-carboxy-3-phenylisoserine, N-tert-butyl ester, 13-ester with 5, 20-epoxy-1,2,4,7, 10, 13-hexahydroxytax-11-en-9-one 4-acetate 2-benzoate, trihydrate] | 45% | 12% | 90±5% |
| – | 100 to 450 nM | COc1cc(/C=C/C(=O)CC(=O)/C=C/c2ccc(O)c(OC)c2)ccc1O [curcumin, (1E,6E)-1,7-bis (4-hydroxy-3-methoxyphenyl)-1,6-heptadiene-3 ,5-dione] | – | – | – |
